In patent US20010049450A1 (priority 2000, published 2001):
Where a name gives a salt, the structure may show the parent alone.

What was measured:
[1] = Crystal particle size distribution and average particle size (SHIMADZU SALD1100, medium diisopropyl ether); type: physicochemical; conditions: for average particle size: average diameter upon conversion of particle volume into sphere; for average particle size / crystal particle size distribution: not less than 10 μm and less than 20 μm / crystal particle size distribution: not less than 20 μm and less than 40 μm / crystal particle size distribution: less than 5 μm / crystal particle size distribution: not less than 40 μm: hydrobromide; for crystal particle size distribution: not less than 10 μm and less than 20 μm: fraction of crystals with 10 μm ≦ D < 20 μm; for crystal particle size distribution: not less than 20 μm and less than 40 μm: fraction of crystals with 20 μm ≦ D < 40 μm; for crystal particle size distribution: less than 5 μm: fraction of crystals with D < 5 μm; for crystal particle size distribution: not less than 40 μm: fraction of crystals with D ≧ 40 μm
Method: The average particle size in the present invention is an average diameter upon conversion of the volume of the crystal particles into sphere. The powder X-ray crystal diffraction and average particle size were measured in the following Reference Example, Examples and Comparative Example, according to the following methods. Average particle size: SHIMADZU CORPORATION SALD1100 (medium:diisopropyl ether)

[2] = Bulk density and tap density of crystals; type: physicochemical

CN(C)CCCC1(c2ccc(F)cc2)OCc2cc(C#N)ccc21 (centres unmarked) [Comparative Example 1, citalopram hydrobromide, reference compound]
average particle size [1]: 6.3 μm | crystal particle size distribution: not less than 10 μm and less than 20 μm [1]: 23.9% | crystal particle size distribution: not less than 20 μm and less than 40 μm [1]: 4.0% | crystal particle size distribution: less than 5 μm [1]: 41.9% | crystal particle size distribution: not less than 40 μm [1]: 0%

CN(C)CCCC1(c2ccc(F)cc2)OCc2cc(C#N)ccc21 (centres unmarked) [Example 5, citalopram hydrobromide]
average particle size [1]: 15.1 μm | crystal particle size distribution: not less than 10 μm and less than 20 μm [1]: 10 μm ≦ D < 20 μm 26.9% | crystal particle size distribution: not less than 20 μm and less than 40 μm [1]: 20 μm ≦ D < 40 μm 31.0% | crystal particle size distribution: less than 5 μm [1]: D < 5 μm 15.6% | crystal particle size distribution: not less than 40 μm [1]: D ≧ 40 μm 7.2% (shown

CN(C)CCCC1(c2ccc(F)cc2)OCc2cc(C#N)ccc21 (centres unmarked) [Example 2, citalopram hydrobromide]
average particle size [1]: 7.8 μm | crystal particle size distribution: not less than 10 μm and less than 20 μm [1]: 25.7% | crystal particle size distribution: not less than 20 μm and less than 40 μm [1]: 12.2% | crystal particle size distribution: less than 5 μm [1]: D < 5 μm 31.4% | crystal particle size distribution: not less than 40 μm [1]: D ≧ 40 μm 0.3%

CN(C)CCCC1(c2ccc(F)cc2)OCc2cc(C#N)ccc21 (centres unmarked) [Example 3, citalopram hydrobromide]
average particle size [1]: 11.0 μm | crystal particle size distribution: not less than 10 μm and less than 20 μm [1]: 31.0% | crystal particle size distribution: not less than 20 μm and less than 40 μm [1]: 21.6% | crystal particle size distribution: less than 5 μm [1]: D < 5 μm 19.6% | crystal particle size distribution: not less than 40 μm [1]: D ≧ 40 μm 1.6%

CN(C)CCCC1(c2ccc(F)cc2)OCc2cc(C#N)ccc21 (centres unmarked) [citalopram hydrobromide, reference compound]
fine crystals having a particle size of less than 5 μm (of the total amount) ([1]; crystallized according to the method of U.S. Pat. No. 4,650,884): 41.9%

CN(C)CCCC1(c2ccc(F)cc2)OCc2cc(C#N)ccc21 (single isomer, unassigned) [Example 6, citalopram hydrobromide]
average particle size [1]: 14.6 μm | crystal particle size distribution: not less than 10 μm and less than 20 μm [1]: 35.5% | crystal particle size distribution: not less than 20 μm and less than 40 μm [1]: 29.3% | crystal particle size distribution: less than 5 μm [1]: 12.6% | crystal particle size distribution: not less than 40 μm [1]: 2.4% | bulk density [2]: 0.2 g/mL | tap density [2]: 0.42 g/mL

CN(C)CCCC1(c2ccc(F)cc2)OCc2cc(C#N)ccc21 (single isomer, unassigned) [Example 4, citalopram hydrobromide]
average particle size [1]: 23.8 μm | crystal particle size distribution: not less than 10 μm and less than 20 μm [1]: 20.9% | crystal particle size distribution: not less than 20 μm and less than 40 μm [1]: 31.7% | crystal particle size distribution: less than 5 μm [1]: 9.6% | crystal particle size distribution: not less than 40 μm [1]: 25.5%

CN(C)CCCC1(c2ccc(F)cc2)OCc2cc(C#N)ccc21 (single isomer, unassigned) [Example 1, citalopram hydrobromide]
average particle size [1]: 12.9 μm | crystal particle size distribution: not less than 10 μm and less than 20 μm [1]: 29.1% | crystal particle size distribution: not less than 20 μm and less than 40 μm [1]: 27.0% | crystal particle size distribution: less than 5 μm [1]: 17.1% | crystal particle size distribution: not less than 40 μm [1]: 4.6%
